In patent US12226412B2, “Heteroaryl-ketone fused azadecalin glucocorticoid receptor modulators” (Corcept Therapeutics, Inc., priority 2012, dated 2025):
Like-named read-outs stand apart in the source and are kept apart here.

Key:
human recombinant GR = target: T1, human recombinant GR (Homo sapiens, UniProt P04150); assay: Human glucocorticoid receptor (GR) fluorescence polarisation (FP) binding assay
T1 construct: purchased PanVera P2812
T1 sequence (P04150 1-777): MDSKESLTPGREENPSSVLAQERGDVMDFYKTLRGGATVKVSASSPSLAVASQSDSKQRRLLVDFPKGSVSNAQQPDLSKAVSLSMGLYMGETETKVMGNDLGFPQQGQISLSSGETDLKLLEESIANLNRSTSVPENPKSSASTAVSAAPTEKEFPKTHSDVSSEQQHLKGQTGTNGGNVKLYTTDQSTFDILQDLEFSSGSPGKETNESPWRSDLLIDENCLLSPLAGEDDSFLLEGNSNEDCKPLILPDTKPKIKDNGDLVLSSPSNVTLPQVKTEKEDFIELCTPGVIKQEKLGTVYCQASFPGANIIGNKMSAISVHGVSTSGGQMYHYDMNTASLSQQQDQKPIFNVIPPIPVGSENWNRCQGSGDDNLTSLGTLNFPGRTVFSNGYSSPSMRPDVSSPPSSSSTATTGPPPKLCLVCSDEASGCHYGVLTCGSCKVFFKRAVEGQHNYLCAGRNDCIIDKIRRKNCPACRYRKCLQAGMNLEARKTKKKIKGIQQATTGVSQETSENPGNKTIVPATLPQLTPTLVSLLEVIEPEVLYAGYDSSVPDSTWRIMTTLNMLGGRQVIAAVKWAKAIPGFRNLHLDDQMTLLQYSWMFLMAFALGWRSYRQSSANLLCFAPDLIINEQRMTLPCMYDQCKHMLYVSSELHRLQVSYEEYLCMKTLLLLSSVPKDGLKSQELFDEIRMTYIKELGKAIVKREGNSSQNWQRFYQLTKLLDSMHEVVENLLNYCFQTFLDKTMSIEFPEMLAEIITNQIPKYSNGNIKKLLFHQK
Summary of the method: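 Competition fluorescence polarisation: 0.5 nM GS Red labelled glucocorticoid and 1 nM recombinant human GR with 8-point half-log compound series, 1% DMSO, 4 h room temperature, potassium phosphate pH 7.4 buffer with molybdate, EDTA, DTT. Affinity derived from the drop in polarisation, normalised to blank wells.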

[1] = tested on: induction of TAT by dexamethasone in HepG2 cells; assay: HepG2 tyrosine aminotransferase (TAT) assay; assay type: cell-based, human
[2] = human recombinant GR, fluorescence polarisation binding assay, read-out: GR binding
[3] = HepG2 cells, challenge of 100 nM dexamethasone, Ki from IC50 by Cheng and Prusoff equation

Row | SMILES | Ki (human recombinant GR; [2]) | Ki [1, 3] | Ki (human recombinant GR) | Ki [1]
1 | CCn1nccc1S(=O)(=O)N1CCC2=Cc3c(cnn3-c3ccc(F)cc3)C[C@]2(C(=O)c2cc(C(F)(F)F)ccn2)C1 [Example 2U, (R)-(6-((1-ethyl-1H-pyrazol-5-yl)sulfonyl)-1-(4-fluorophenyl)-4,4a,5,6,7,8-hexahydro-1H-pyrazolo[3,4-g]isoquinolin-4a-yl)(4-(trifluoromethyl)pyridin-2-yl)methanone] | > 1 nM | < 20 nM | – | –
2 | Cc1n[nH]c(C)c1S(=O)(=O)N1CCC2=Cc3c(cnn3-c3ccc(F)cc3)C[C@]2(C(=O)c2cc(C(F)(F)F)ccn2)C1 [Example 2V, (R)-(6-((3,5-dimethyl-1H-pyrazol-4-yl)sulfonyl)-1-(4-fluorophenyl)-4,4a,5,6,7,8-hexahydro-1H-pyrazolo[3,4-g]isoquinolin-4a-yl)(4-(trifluoromethyl)pyridin-2-yl)methanone] | > 1 nM | 20 to 100 nM | – | –
3 | O=C(c1cc(C(F)(F)F)ccn1)[C@]12Cc3cnn(-c4ccc(F)cc4)c3C=C1CCN(S(=O)(=O)c1c[nH]cn1)C2 [Example 2W, (R)-(6-((1H-imidazol-4-yl)sulfonyl)-1-(4-fluorophenyl)-4,4a,5,6,7,8-hexahydro-1H-pyrazolo[3,4-g]isoquinolin-4a-yl)(4-(trifluoromethyl)pyridin-2-yl)methanone] | > 1 nM | 20 to 100 nM | – | –
4 | O=C(c1ccccn1)[C@]12Cc3cnn(-c4ccc(F)cc4)c3C=C1CCN(S(=O)(=O)c1ccc(N3CCOCC3)nc1)C2 [Example 3, (R)-(1-(4-fluorophenyl)-6-((6-morpholinopyridin-3-yl)sulfonyl)-4,4a,5,6,7,8-hexahydro-1H-pyrazolo[3,4-g]isoquinolin-4a-yl)(pyridin-2-yl)methanone] | < 0.5 nM | 20 to 100 nM | – | –
5 | O=C(c1nccs1)[C@]12Cc3cnn(-c4ccc(F)cc4)c3C=C1CCN(S(=O)(=O)c1ccc(N3CCCC3)nc1)C2 [Example 4, (R)-(1-(4-fluorophenyl)-6-((6-(pyrrolidin-1-yl)pyridin-3-yl)sulfonyl)-4,4a,5,6,7,8-hexahydro-1H-pyrazolo[3,4-g]isoquinolin-4a-yl)(thiazol-2-yl)methanone] | < 0.5 nM | ≥ 100 nM | – | –
6 | O=C(c1nccs1)[C@]12Cc3cnn(-c4ccc(F)cc4)c3C=C1CCN(S(=O)(=O)c1ccc(F)cc1)C2 [Example 5, (R)-(1-(4-fluorophenyl)-6-((4-fluorophenyl)sulfonyl)-4,4a,5,6,7,8-hexahydro-1H-pyrazolo[3,4-g]isoquinolin-4a-yl)(thiazol-2-yl)methanone] | < 0.5 nM | 20 to 100 nM | – | –
7 | O=C(c1nccs1)[C@]12Cc3cnn(-c4ccc(F)cc4)c3C=C1CCN(S(=O)(=O)c1cccc(F)c1)C2 [Example 5A, (R)-(1-(4-fluorophenyl)-6-((3-fluorophenyl)sulfonyl)-4,4a,5,6,7,8-hexahydro-1H-pyrazolo[3,4-g]isoquinolin-4a-yl)(thiazol-2-yl)methanone] | < 0.5 nM | < 20 nM | – | –
8 | N#Cc1ccc(CS(=O)(=O)N2CCC3=Cc4c(cnn4-c4ccc(F)cc4)C[C@]3(C(=O)c3nccs3)C2)cc1 [Example 5B, (R)-4-(((1-(4-fluorophenyl)-4a-(thiazole-2-carbonyl)-4a,5,7,8-tetrahydro-1H-pyrazolo[3,4-g]isoquinolin-6 (4H)-yl)sulfonyl)methyl)benzonitrile] | < 0.5 nM | ≥ 100 nM | – | –
9 | O=C(c1ccccn1)[C@]12Cc3cnn(-c4ccc(F)cc4)c3C=C1CCN(S(=O)(=O)c1cccc(C(F)(F)F)c1)C2 [Example 5C, (R)-(1-(4-fluorophenyl)-6-((3-(trifluoromethyl)phenyl)sulfonyl)-4,4a,5,6,7,8-hexahydro-1H-pyrazolo[3,4-g]isoquinolin-4a-yl)(pyridin-2-yl)methanone] | – | – | < 0.5 nM | < 20 nM
10 | Cn1ncnc1C(=O)[C@]12Cc3cnn(-c4ccc(F)cc4)c3C=C1CCN(S(=O)(=O)c1ccc(C(F)(F)F)cc1)C2 [Example 5D, (R)-(1-(4-fluorophenyl)-6-((4-(trifluoromethyl)phenyl)sulfonyl)-4,4a,5,6,7,8-hexahydro-1H-pyrazolo[3,4-g]isoquinolin-4a-yl)(1-methyl-1H-1,2,4-triazol-5-yl)methanone] | < 0.5 nM | ≥ 100 nM | – | –
11 | O=C(c1cnccn1)[C@]12Cc3cnn(-c4ccc(F)cc4)c3C=C1CCN(S(=O)(=O)c1ccc(C(F)(F)F)cc1)C2 [Example 5E, (R)-(1-(4-fluorophenyl)-6-((4-(trifluoromethyl)phenyl)sulfonyl)-4,4a,5,6,7,8-hexahydro-1H-pyrazolo[3,4-g]isoquinolin-4a-yl)(pyrazin-2-yl)methanone] | – | – | < 0.5 nM | 20 to 100 nM
12 | O=C(c1ccccn1)[C@]12Cc3cnn(-c4ccc(F)cc4)c3C=C1CCN(S(=O)(=O)c1cncc(F)c1)C2 [Example 5F, (R)-(1-(4-fluorophenyl)-6-((5-fluoropyridin-3-yl)sulfonyl)-4,4a,5,6,7,8-hexahydro-1H-pyrazolo[3,4-g]isoquinolin-4a-yl)(pyridin-2-yl)methanone] | < 0.5 nM | 20 to 100 nM | – | –
13 | O=C(c1ccccn1)[C@]12Cc3cnn(-c4ccc(F)cc4)c3C=C1CCN(S(=O)(=O)c1cccc(F)c1)C2 [Example 5G, (R)-(1-(4-fluorophenyl)-6-((3-fluorophenyl)sulfonyl)-4,4a,5,6,7,8-hexahydro-1H-pyrazolo[3,4-g]isoquinolin-4a-yl)(pyridin-2-yl)methanone] | < 0.5 nM | < 20 nM | – | –
14 | COc1ccc(C(=O)[C@]23Cc4cnn(-c5ccc(F)cc5)c4C=C2CCN(S(=O)(=O)c2ccc(C(F)(F)F)cc2)C3)nc1 [Example 5H, (R)-(1-(4-fluorophenyl)-6-((4-(trifluoromethyl)phenyl)sulfonyl)-4,4a,5,6,7,8-hexahydro-1H-pyrazolo[3,4-g]isoquinolin-4a-yl)(5-methoxypyridin-2-yl)methanone] | 0.5 to 1 nM | < 20 nM | – | –
15 | O=C(c1cncs1)[C@]12Cc3cnn(-c4ccc(F)cc4)c3C=C1CCN(S(=O)(=O)c1ccc(C(F)(F)F)cc1)C2 [Example 5I, (R)-(1-(4-fluorophenyl)-6-((4-(trifluoromethyl)phenyl)sulfonyl)-4,4a,5,6,7,8-hexahydro-1H-pyrazolo[3,4-g]isoquinolin-4a-yl)(thiazol-5-yl)methanone] | – | – | < 0.5 nM | > 100 nM
16 | O=C(c1nccs1)[C@]12Cc3cnn(-c4ccc(F)cc4)c3C=C1CCN(S(=O)(=O)c1ccc(N3CCCC3)cc1)C2 [Example 6, (R)-(1-(4-fluorophenyl)-6-((4-(pyrrolidin-1-yl)phenyl)sulfonyl)-4,4a,5,6,7,8-hexahydro-1H-pyrazolo[3,4-g]isoquinolin-4a-yl)(thiazol-2-yl)methanone] | 0.5 to 1 nM | 20 to 100 nM | – | –
17 | O=C(c1nccs1)[C@]12Cc3cnn(-c4ccc(F)cc4)c3C=C1CCN(S(=O)(=O)c1cccc(N3CCCC3)c1)C2 [Example 6A, (R)-(1-(4-fluorophenyl)-6-((3-(pyrrolidin-1-yl)phenyl)sulfonyl)-4,4a,5,6,7,8-hexahydro-1H-pyrazolo[3,4-g]isoquinolin-4a-yl)(thiazol-2-yl)methanone] | < 0.5 nM | ≥ 100 nM | – | –
18 | O=C(c1nccs1)[C@]12Cc3cnn(-c4ccc(F)cc4)c3C=C1CCN(S(=O)(=O)c1cncc(N3CCCCC3)c1)C2 [Example 7, (R)-(1-(4-fluorophenyl)-6-((5-(piperidin-1-yl)pyridin-3-yl)sulfonyl)-4,4a,5,6,7,8-hexahydro-1H-pyrazolo[3,4-g]isoquinolin-4a-yl)(thiazol-2-yl)methanone] | < 0.5 nM | 20 to 100 nM | – | –
